In PubChem BioAssay (NCI):
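Assay format: 96-well plates, 48-hour exposure. At the GI50, growth is halved. TGI: total growth inhibition.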

How the values were obtained:
Assay in all cases: DTP human tumour cell line panel, 48 h
SN12C renal = system: SN12C renal
SNB-75 CNS = system: SNB-75 CNS
NCI/ADR-RES ovarian = system: NCI/ADR-RES ovarian
SNB-19 CNS = system: SNB-19 CNS
A498 renal = system: A498 renal
NCI-H23 lung = system: NCI-H23 lung
NCI-H226 lung = system: NCI-H226 lung
MDA-MB-468 breast = system: MDA-MB-468 breast
786-0 renal = system: 786-0 renal
M14 melanoma = system: M14 melanoma
MALME-3M melanoma = system: MALME-3M melanoma
SK-MEL-5 melanoma = system: SK-MEL-5 melanoma
HOP-62 NSCLC = system: HOP-62 NSCLC
MDA-MB-231 breast = system: MDA-MB-231 breast
CCRF-CEM leukemia = system: CCRF-CEM leukemia
NCI-H522 lung = system: NCI-H522 lung
MOLT-4 leukemia = system: MOLT-4 leukemia
SF-268 CNS = system: SF-268 CNS
OVCAR-3 ovarian = system: OVCAR-3 ovarian
HCT-15 colon = system: HCT-15 colon
IGROV1 ovarian = system: IGROV1 ovarian
SK-OV-3 ovarian = system: SK-OV-3 ovarian
SW-620 colon = system: SW-620 colon
SF-539 CNS = system: SF-539 CNS
NCI-H460 lung = system: NCI-H460 lung
U251 CNS = system: U251 CNS
MCF7 breast = system: MCF7 breast
SF-295 CNS = system: SF-295 CNS
SK-MEL-2 melanoma = system: SK-MEL-2 melanoma
PC-3 prostate = system: PC-3 prostate
UO-31 renal = system: UO-31 renal
TK-10 renal = system: TK-10 renal
HCC-2998 colon = system: HCC-2998 colon
DU-145 prostate = system: DU-145 prostate
HCT-116 colon = system: HCT-116 colon
A549 NSCLC = system: A549 NSCLC
OVCAR-8 ovarian = system: OVCAR-8 ovarian
COLO 205 colon = system: COLO 205 colon
HL-60(TB) leukemia = system: HL-60(TB) leukemia
HOP-92 NSCLC = system: HOP-92 NSCLC
KM12 colon = system: KM12 colon
UACC-62 melanoma = system: UACC-62 melanoma
RPMI-8226 leukemia = system: RPMI-8226 leukemia
T-47D breast = system: T-47D breast
ACHN renal = system: ACHN renal
OVCAR-4 ovarian = system: OVCAR-4 ovarian
SR leukemia = system: SR leukemia
UACC-257 melanoma = system: UACC-257 melanoma
CAKI-1 renal = system: CAKI-1 renal
BT-549 breast = system: BT-549 breast
EKVX NSCLC = system: EKVX NSCLC
K-562 leukemia = system: K-562 leukemia
LOX IMVI melanoma = system: LOX IMVI melanoma
HT29 colon = system: HT29 colon
OVCAR-5 ovarian = system: OVCAR-5 ovarian
HS 578T breast = system: HS 578T breast
SK-MEL-28 melanoma = system: SK-MEL-28 melanoma
RXF 393 renal = system: RXF 393 renal
MDA-MB-435 = system: MDA-MB-435

With `O=C(Nc1ccc(Cl)c([N+](=O)[O-])c1)Nc1ccc(Cl)c([N+](=O)[O-])c1` the GI50 (SN12C renal) was 2.92 µM, the TGI (SN12C renal) was 9.19 µM and the GI50 (SNB-75 CNS) was 3.82 µM. The TGI (SNB-75 CNS) was 19.5 µM, the GI50 (NCI/ADR-RES ovarian) was 3.2 µM and the TGI (NCI/ADR-RES ovarian) was 11.2 µM. It also gave a GI50 (SNB-19 CNS) of 2.68 µM, a TGI (SNB-19 CNS) of 10.5 µM and a GI50 (A498 renal) of 3.33 µM. The TGI (A498 renal) was 10.8 µM, the GI50 (NCI-H23 lung) was 2.36 µM and the TGI (NCI-H23 lung) was 6.35 µM. It also gave a GI50 (NCI-H226 lung) of 2.92 µM, a TGI (NCI-H226 lung) of 10.1 µM and a GI50 (MDA-MB-468 breast) of 2.2 µM. The TGI (MDA-MB-468 breast) was 6.48 µM, the GI50 (786-0 renal) was 2.91 µM and the TGI (786-0 renal) was 11.9 µM. The GI50 (M14 melanoma) was 4.04 µM, the TGI (M14 melanoma) was 15 µM and the GI50 (MALME-3M melanoma) was 3.02 µM. For the same compound, the TGI (MALME-3M melanoma) was 11.8 µM, the GI50 (SK-MEL-5 melanoma) was 2.94 µM and the TGI (SK-MEL-5 melanoma) was 10.5 µM. The GI50 (HOP-62 NSCLC) was 4.63 µM, the TGI (HOP-62 NSCLC) was 17.2 µM and the GI50 (MDA-MB-231 breast) was 3.05 µM. It also gave a TGI (MDA-MB-231 breast) of 8.99 µM, a GI50 (CCRF-CEM leukemia) of 2.95 µM and a TGI (CCRF-CEM leukemia) of 11.3 µM. It also gave a GI50 (NCI-H522 lung) of 2.34 µM, a TGI (NCI-H522 lung) of 5.81 µM and a GI50 (MOLT-4 leukemia) of 3.12 µM. For the same compound, the TGI (MOLT-4 leukemia) was 14.6 µM, the GI50 (SF-268 CNS) was 3.87 µM and the TGI (SF-268 CNS) was 15.8 µM. The GI50 (OVCAR-3 ovarian) was 2.6 µM, the TGI (OVCAR-3 ovarian) was 7.91 µM and the GI50 (HCT-15 colon) was 2.83 µM. For the same compound, the TGI (HCT-15 colon) was 10.9 µM, the GI50 (IGROV1 ovarian) was 3.02 µM and the TGI (IGROV1 ovarian) was 9.14 µM. It also gave a GI50 (SK-OV-3 ovarian) of 4.04 µM, a TGI (SK-OV-3 ovarian) of 15.5 µM and a GI50 (SW-620 colon) of 3.43 µM. The TGI (SW-620 colon) was 13 µM, the GI50 (SF-539 CNS) was 4.88 µM and the TGI (SF-539 CNS) was 17.3 µM. It also gave a GI50 (NCI-H460 lung) of 3.22 µM, a TGI (NCI-H460 lung) of 10.6 µM and a GI50 (U251 CNS) of 3.02 µM. The TGI (U251 CNS) was 12.2 µM, the GI50 (MCF7 breast) was 2.31 µM and the TGI (MCF7 breast) was 7.43 µM. The GI50 (SF-295 CNS) was 2.46 µM, the TGI (SF-295 CNS) was 7.83 µM and the GI50 (SK-MEL-2 melanoma) was 2.9 µM. For the same compound, the TGI (SK-MEL-2 melanoma) was 9.11 µM, the GI50 (PC-3 prostate) was 2.83 µM and the TGI (PC-3 prostate) was 10.9 µM. It also gave a GI50 (UO-31 renal) of 2.82 µM, a TGI (UO-31 renal) of 10.1 µM and a GI50 (TK-10 renal) of 4.31 µM. The TGI (TK-10 renal) was 16.6 µM, the GI50 (HCC-2998 colon) was 3.32 µM and the TGI (HCC-2998 colon) was 11.9 µM. The GI50 (DU-145 prostate) was 3.66 µM, the TGI (DU-145 prostate) was 13.8 µM and the GI50 (HCT-116 colon) was 3.19 µM. It also gave a TGI (HCT-116 colon) of 9.34 µM, a GI50 (A549 NSCLC) of 4.29 µM and a TGI (A549 NSCLC) of 16.9 µM. For the same compound, the GI50 (OVCAR-8 ovarian) was 4.06 µM, the TGI (OVCAR-8 ovarian) was 14.7 µM and the GI50 (COLO 205 colon) was 2.69 µM. It also gave a TGI (COLO 205 colon) of 6.97 µM, a GI50 (HL-60(TB) leukemia) of 2.72 µM and a TGI (HL-60(TB) leukemia) of 7.11 µM. For the same compound, the GI50 (HOP-92 NSCLC) was 2.28 µM, the TGI (HOP-92 NSCLC) was 6.53 µM and the GI50 (KM12 colon) was 3.49 µM. The TGI (KM12 colon) was 12.6 µM, the GI50 (UACC-62 melanoma) was 2.74 µM and the TGI (UACC-62 melanoma) was 10.6 µM. The GI50 (RPMI-8226 leukemia) was 2.27 µM, the TGI (RPMI-8226 leukemia) was 6.32 µM and the GI50 (T-47D breast) was 2.2 µM. The TGI (T-47D breast) was 9.1 µM, the GI50 (ACHN renal) was 2.69 µM and the TGI (ACHN renal) was 7.44 µM. For the same compound, the GI50 (OVCAR-4 ovarian) was 2.95 µM, the TGI (OVCAR-4 ovarian) was 11.3 µM and the GI50 (SR leukemia) was 3.57 µM. For the same compound, the TGI (SR leukemia) was 20.3 µM, the GI50 (UACC-257 melanoma) was 4.81 µM and the TGI (UACC-257 melanoma) was 17.2 µM. For the same compound, the GI50 (CAKI-1 renal) was 2.98 µM, the TGI (CAKI-1 renal) was 10.5 µM and the GI50 (BT-549 breast) was 2.79 µM. The TGI (BT-549 breast) was 9.94 µM, the GI50 (EKVX NSCLC) was 3.56 µM and the TGI (EKVX NSCLC) was 13.1 µM. For the same compound, the GI50 (K-562 leukemia) was 2.8 µM, the TGI (K-562 leukemia) was 14.1 µM and the GI50 (LOX IMVI melanoma) was 3.13 µM. The TGI (LOX IMVI melanoma) was 9.64 µM, the GI50 (HT29 colon) was 3.34 µM and the TGI (HT29 colon) was 13.3 µM. For the same compound, the GI50 (OVCAR-5 ovarian) was 7.12 µM, the TGI (OVCAR-5 ovarian) was 20.7 µM and the GI50 (HS 578T breast) was 5.46 µM. It also gave a TGI (HS 578T breast) of 31.3 µM, a GI50 (SK-MEL-28 melanoma) of 3.78 µM and a TGI (SK-MEL-28 melanoma) of 14.4 µM. The GI50 (RXF 393 renal) was 11.3 µM, the TGI (RXF 393 renal) was 24.8 µM and the GI50 (MDA-MB-435) was 3.71 µM. It also gave a TGI (MDA-MB-435) of 12.8 µM.
